# Results taken from publication PMC9030254, “Target Hopping from Protein Kinases to PXR: Identification of Small-Molecule Protein Kinase Inhibitors as Selective Modulators of Pregnane X Receptor from TüKIC Library” (Cells, 2022).
# What was measured:
# Assay in all cases: Kinase profiling
# Assay type in all cases: biochemical
# ACVR1B = target: T1, ACVR1B (Homo sapiens, UniProt P36896)
# T1 construct: purchased ProQinase (Freiburg, Germany)
# T1 sequence (P36896 24-505): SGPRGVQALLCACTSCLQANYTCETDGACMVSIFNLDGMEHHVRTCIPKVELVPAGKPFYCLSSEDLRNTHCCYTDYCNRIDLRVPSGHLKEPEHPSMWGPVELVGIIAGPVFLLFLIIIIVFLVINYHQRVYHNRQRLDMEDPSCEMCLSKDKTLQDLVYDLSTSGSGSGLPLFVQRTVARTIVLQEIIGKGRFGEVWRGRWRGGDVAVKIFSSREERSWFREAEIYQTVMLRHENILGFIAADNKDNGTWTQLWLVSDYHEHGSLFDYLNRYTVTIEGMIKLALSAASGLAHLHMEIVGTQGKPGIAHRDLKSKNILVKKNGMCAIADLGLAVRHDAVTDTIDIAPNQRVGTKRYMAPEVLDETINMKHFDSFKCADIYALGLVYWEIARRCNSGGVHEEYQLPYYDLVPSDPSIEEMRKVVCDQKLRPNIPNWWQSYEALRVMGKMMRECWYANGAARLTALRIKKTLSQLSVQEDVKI
# Method: (§1) The analysis was performed by ProQinase (Freiburg, Germany).
# CAMK2A = target: T2, CAMK2A (Homo sapiens, UniProt Q9UQM7)
# T2 construct: purchased ProQinase (Freiburg, Germany)
# Method: as §1
# CDK1/CycB1 = target: T3, CDK1/CycB1 (Homo sapiens, UniProt P06493)
# T3 construct: purchased ProQinase (Freiburg, Germany)
# Method: as §1
# CDK2/CycD1 = target: T4, CDK2/CycD1 (Homo sapiens, UniProt P24941)
# T4 construct: purchased ProQinase (Freiburg, Germany)
# Method: as §1
# CDK20/CycT1 = target: T5, CDK20/CycT1 (Homo sapiens, UniProt Q8IZL9)
# T5 construct: purchased ProQinase (Freiburg, Germany)
# Method: as §1
# ERK7 = target: T6, ERK7 (Homo sapiens, UniProt Q8TD08)
# T6 construct: purchased ProQinase (Freiburg, Germany)
# T6 sequence (Q8TD08 1-544): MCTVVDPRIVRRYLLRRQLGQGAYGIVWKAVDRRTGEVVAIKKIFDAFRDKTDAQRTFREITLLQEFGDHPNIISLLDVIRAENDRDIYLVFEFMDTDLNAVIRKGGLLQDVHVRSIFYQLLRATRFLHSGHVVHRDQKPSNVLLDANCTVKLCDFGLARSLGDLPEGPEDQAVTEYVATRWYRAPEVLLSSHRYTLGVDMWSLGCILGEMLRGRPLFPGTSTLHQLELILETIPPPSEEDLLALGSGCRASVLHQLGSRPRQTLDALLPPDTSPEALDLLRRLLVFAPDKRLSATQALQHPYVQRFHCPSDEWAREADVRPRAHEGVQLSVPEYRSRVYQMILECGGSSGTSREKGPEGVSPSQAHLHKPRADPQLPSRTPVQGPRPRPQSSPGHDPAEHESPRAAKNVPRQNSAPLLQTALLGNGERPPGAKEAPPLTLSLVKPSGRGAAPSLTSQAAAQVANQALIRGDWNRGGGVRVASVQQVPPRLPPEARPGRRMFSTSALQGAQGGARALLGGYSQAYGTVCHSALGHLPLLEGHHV
# Method: as §1
# FER = target: T7, FER (Homo sapiens, UniProt P16591)
# T7 construct: purchased ProQinase (Freiburg, Germany)
# Method: as §1
# GRK7 = target: T8, GRK7 (Homo sapiens, UniProt Q8WTQ7)
# T8 construct: purchased ProQinase (Freiburg, Germany)
# T8 sequence (Q8WTQ7 1-553): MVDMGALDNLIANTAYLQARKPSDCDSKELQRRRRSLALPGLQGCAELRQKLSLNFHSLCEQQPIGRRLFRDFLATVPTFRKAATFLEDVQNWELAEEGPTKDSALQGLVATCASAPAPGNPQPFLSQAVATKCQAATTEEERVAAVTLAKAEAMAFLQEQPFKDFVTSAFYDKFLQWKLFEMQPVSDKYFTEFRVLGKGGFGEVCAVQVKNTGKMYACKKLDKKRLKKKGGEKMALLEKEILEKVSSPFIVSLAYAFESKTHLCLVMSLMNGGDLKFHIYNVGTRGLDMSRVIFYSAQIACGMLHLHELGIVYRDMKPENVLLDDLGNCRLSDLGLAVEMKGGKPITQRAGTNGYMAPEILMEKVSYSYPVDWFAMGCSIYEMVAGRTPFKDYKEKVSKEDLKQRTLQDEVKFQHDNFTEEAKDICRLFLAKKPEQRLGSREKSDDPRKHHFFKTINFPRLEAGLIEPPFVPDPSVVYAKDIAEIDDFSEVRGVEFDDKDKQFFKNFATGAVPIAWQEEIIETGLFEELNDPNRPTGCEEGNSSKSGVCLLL
# Method: as §1
# HCK = target: T9, HCK (Homo sapiens, UniProt P08631)
# T9 construct: purchased ProQinase (Freiburg, Germany)
# Method: as §1
# LIMK1 = target: T10, LIMK1 (Homo sapiens, UniProt P53667)
# T10 construct: purchased ProQinase (Freiburg, Germany)
# Method: as §1
# MAPKAPK2 = target: T11, MAPKAPK2 (Homo sapiens, UniProt P49137)
# T11 construct: purchased ProQinase (Freiburg, Germany)
# Method: as §1
# PAK6 = target: T12, PAK6 (Homo sapiens, UniProt Q9NQU5)
# T12 construct: purchased ProQinase (Freiburg, Germany)
# Method: as §1
# PIM1 = target: T13, PIM1 (Homo sapiens, UniProt P11309)
# T13 construct: purchased ProQinase (Freiburg, Germany)
# Method: as §1
# PKCtheta = target: T14, PKCtheta (Homo sapiens, UniProt Q04759)
# T14 construct: purchased ProQinase (Freiburg, Germany)
# Method: as §1
# RET = target: T15, RET (Homo sapiens, UniProt P07949)
# T15 construct: purchased ProQinase (Freiburg, Germany)
# Method: as §1
# SRC = target: T16, SRC (Homo sapiens, UniProt P12931)
# T16 construct: purchased ProQinase (Freiburg, Germany)
# Method: as §1
# TRKA = target: T17, TRKA (Homo sapiens, UniProt P04629)
# T17 construct: purchased ProQinase (Freiburg, Germany)
# Method: as §1
# p38alpha = target: T18, p38alpha (Homo sapiens, UniProt Q16539)
# T18 construct: purchased ProQinase (Freiburg, Germany)
# Method: as §1
# T13 sequence (P11309 whole entry): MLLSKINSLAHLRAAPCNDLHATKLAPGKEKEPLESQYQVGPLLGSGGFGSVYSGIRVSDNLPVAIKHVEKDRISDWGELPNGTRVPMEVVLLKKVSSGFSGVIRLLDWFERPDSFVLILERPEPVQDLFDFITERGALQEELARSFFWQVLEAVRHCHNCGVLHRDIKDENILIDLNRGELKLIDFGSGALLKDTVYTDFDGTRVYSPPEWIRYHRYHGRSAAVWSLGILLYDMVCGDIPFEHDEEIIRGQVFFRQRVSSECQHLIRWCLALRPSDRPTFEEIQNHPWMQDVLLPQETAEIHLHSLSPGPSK
# T15 sequence (P07949 29-1114): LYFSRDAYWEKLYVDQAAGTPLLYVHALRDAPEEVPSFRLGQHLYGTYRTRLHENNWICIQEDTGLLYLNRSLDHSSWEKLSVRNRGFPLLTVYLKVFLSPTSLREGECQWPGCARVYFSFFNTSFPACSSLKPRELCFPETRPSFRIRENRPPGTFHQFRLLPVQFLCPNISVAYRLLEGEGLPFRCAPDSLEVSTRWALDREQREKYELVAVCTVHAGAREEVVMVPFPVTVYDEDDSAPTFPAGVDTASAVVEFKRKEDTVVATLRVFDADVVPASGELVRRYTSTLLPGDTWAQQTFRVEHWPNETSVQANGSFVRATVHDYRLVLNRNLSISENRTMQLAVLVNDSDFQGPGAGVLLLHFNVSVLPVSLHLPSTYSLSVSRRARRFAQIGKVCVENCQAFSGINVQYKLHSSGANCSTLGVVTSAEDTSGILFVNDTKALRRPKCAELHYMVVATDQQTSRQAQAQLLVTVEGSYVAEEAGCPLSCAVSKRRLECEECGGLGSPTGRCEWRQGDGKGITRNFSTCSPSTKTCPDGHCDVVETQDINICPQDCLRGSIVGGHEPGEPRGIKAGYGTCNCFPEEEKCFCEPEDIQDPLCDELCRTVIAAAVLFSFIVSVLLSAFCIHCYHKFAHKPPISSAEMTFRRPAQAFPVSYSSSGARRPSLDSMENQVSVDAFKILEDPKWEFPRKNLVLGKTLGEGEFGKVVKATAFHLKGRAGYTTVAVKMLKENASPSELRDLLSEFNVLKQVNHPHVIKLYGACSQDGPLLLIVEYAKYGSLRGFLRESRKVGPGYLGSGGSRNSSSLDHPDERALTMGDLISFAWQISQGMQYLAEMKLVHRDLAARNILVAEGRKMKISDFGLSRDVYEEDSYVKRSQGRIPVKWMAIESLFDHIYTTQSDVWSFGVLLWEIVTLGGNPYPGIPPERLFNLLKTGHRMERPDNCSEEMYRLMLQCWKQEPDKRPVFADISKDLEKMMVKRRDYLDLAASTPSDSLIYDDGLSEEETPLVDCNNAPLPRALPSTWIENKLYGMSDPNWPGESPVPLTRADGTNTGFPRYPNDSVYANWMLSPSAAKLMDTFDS
# T3 sequence (P06493 whole entry): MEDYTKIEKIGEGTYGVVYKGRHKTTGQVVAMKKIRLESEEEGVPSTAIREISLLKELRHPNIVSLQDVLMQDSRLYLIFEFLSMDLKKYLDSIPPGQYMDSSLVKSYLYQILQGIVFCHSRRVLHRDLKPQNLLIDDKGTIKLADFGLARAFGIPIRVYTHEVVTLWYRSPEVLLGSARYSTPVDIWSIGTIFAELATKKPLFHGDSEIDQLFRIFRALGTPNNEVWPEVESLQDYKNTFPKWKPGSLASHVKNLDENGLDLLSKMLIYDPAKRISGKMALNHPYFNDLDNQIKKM
# T3 sequence (P14635 whole entry partner): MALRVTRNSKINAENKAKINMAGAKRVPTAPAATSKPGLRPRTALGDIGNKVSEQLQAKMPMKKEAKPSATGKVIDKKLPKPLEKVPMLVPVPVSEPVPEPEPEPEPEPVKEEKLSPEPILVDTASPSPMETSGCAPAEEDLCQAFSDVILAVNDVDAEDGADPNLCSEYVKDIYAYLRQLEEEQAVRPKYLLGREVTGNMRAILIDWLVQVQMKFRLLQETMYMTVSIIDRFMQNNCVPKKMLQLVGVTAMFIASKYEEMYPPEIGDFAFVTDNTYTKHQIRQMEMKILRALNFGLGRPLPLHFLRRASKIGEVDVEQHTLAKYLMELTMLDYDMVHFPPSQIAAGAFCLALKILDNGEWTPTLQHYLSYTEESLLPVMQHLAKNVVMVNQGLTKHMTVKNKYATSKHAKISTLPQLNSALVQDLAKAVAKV
# T5 sequence (Q8IZL9 whole entry): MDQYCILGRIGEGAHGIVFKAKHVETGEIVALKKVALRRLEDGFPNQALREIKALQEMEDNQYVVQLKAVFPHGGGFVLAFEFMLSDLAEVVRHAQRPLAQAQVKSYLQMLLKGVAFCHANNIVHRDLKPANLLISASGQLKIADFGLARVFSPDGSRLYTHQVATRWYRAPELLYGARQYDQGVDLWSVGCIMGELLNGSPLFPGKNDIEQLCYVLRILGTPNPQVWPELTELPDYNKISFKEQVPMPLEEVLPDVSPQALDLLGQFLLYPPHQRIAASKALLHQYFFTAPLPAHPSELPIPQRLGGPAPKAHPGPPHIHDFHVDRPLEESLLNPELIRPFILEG
# T5 sequence (O60563 whole entry partner): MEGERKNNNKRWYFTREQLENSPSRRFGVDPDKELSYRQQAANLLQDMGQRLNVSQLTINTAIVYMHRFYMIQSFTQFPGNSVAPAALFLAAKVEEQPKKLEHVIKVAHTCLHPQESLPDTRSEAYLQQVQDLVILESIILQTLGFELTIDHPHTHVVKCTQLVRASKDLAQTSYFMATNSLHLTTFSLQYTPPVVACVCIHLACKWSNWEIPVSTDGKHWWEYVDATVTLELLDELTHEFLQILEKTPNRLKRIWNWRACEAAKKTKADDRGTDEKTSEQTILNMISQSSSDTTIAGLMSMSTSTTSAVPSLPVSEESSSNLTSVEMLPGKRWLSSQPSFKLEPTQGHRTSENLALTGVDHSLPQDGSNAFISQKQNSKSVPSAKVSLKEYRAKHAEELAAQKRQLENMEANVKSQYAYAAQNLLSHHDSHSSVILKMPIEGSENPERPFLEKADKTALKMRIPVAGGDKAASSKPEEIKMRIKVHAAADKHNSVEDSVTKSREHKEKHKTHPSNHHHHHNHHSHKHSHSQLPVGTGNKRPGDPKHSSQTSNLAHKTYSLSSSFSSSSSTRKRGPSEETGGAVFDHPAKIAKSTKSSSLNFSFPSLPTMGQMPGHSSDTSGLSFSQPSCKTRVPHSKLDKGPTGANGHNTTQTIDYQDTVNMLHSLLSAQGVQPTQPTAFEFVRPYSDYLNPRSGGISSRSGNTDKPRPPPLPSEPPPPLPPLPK
# T9 sequence (P08631 whole entry): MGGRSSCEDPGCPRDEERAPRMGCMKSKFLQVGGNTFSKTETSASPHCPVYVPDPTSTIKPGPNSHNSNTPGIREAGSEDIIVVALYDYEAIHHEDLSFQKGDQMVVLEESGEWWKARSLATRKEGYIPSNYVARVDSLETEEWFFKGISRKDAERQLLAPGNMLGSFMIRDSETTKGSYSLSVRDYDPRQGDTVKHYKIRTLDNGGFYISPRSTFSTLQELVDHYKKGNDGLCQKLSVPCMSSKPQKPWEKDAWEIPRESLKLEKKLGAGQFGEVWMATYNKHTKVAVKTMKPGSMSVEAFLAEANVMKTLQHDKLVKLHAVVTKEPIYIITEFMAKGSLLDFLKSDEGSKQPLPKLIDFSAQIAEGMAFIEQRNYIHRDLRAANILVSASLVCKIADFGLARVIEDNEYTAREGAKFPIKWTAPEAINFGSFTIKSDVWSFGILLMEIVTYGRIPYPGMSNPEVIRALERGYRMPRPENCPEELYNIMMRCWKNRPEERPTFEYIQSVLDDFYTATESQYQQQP
# T7 sequence (P16591 whole entry): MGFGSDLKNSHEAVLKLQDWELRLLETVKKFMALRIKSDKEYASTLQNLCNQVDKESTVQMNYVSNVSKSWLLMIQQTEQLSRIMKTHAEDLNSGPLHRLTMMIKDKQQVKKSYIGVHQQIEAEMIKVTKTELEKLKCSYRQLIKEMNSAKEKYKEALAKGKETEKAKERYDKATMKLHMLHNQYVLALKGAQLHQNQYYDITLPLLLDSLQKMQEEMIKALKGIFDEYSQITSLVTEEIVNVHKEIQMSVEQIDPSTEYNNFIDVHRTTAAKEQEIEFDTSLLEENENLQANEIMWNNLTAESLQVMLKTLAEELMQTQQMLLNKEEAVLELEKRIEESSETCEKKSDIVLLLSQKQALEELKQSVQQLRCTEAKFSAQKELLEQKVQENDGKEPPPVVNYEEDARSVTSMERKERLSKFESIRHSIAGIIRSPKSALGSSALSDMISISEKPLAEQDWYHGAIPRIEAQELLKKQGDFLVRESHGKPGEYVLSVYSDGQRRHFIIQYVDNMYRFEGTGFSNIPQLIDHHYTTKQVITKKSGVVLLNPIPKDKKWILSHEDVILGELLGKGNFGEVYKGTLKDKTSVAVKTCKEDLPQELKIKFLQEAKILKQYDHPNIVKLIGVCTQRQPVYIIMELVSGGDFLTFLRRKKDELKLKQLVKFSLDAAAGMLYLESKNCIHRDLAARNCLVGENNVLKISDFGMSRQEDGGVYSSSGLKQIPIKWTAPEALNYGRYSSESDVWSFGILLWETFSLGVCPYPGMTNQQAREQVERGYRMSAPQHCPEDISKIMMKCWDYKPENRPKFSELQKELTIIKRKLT
# T18 sequence (Q16539 whole entry): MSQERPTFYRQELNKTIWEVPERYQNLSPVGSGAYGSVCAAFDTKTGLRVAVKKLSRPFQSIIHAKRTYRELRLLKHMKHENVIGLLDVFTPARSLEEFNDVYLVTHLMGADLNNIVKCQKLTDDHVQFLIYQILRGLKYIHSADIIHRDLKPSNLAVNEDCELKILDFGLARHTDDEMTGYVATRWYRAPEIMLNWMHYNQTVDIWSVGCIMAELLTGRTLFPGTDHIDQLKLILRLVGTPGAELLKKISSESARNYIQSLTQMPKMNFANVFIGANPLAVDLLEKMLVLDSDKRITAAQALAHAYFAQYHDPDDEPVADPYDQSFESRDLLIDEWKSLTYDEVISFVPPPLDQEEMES
Structure (SMILES),Residual activity (ACVR1B; 1.0E-05 M),Residual activity (ACVR1B; 1.0E-06 M),Residual activity (CAMK2A; 1.0E-05 M),Residual activity (CAMK2A; 1.0E-06 M),Residual activity (CDK1/CycB1; 1.0E-05 M),Residual activity (CDK1/CycB1; 1.0E-06 M),Residual activity (CDK2/CycD1; 1.0E-05 M),Residual activity (CDK2/CycD1; 1.0E-06 M),Residual activity (CDK20/CycT1; 1.0E-05 M),Residual activity (CDK20/CycT1; 1.0E-06 M),Residual activity (ERK7; 1.0E-05 M),Residual activity (ERK7; 1.0E-06 M),Residual activity (FER; 1.0E-05 M),Residual activity (FER; 1.0E-06 M),Residual activity (GRK7; 1.0E-05 M),Residual activity (GRK7; 1.0E-06 M),Residual activity (HCK; 1.0E-05 M),Residual activity (HCK; 1.0E-06 M),Residual activity (LIMK1; 1.0E-05 M),Residual activity (LIMK1; 1.0E-06 M),further results
O=C(Cc1ccccc1)Nc1ccc(F)c(Nc2ccc3c(c2)CCCCC3=O)c1 [Compound 100],90 % of control,92 % of control,94 % of control,96 % of control,100 % of control,107 % of control,119 % of control,102 % of control,92 % of control,98 % of control,85 % of control,96 % of control,94 % of control,101 % of control,123 % of control,121 % of control,95 % of control,107 % of control,87 % of control,102 % of control,Residual activity (MAPKAPK2; 1.0E-05 M): 77 % of control; Residual activity (MAPKAPK2; 1.0E-06 M): 121 % of control; Residual activity (PAK6; 1.0E-05 M): 98 % of control; Residual activity (PAK6; 1.0E-06 M): 101 % of control; Residual activity (PIM1; 1.0E-05 M): 74 % of control; Residual activity (PIM1; 1.0E-06 M): 88 % of control; Residual activity (PKCtheta; 1.0E-05 M): 82 % of control; Residual activity (PKCtheta; 1.0E-06 M): 104 % of control; Residual activity (RET; 1.0E-05 M): 70 % of control; Residual activity (RET; 1.0E-06 M): 91 % of control; Residual activity (SRC; 1.0E-05 M): 105 % of control; Residual activity (SRC; 1.0E-06 M): 117 % of control; Residual activity (TRKA; 1.0E-05 M): 94 % of control; Residual activity (TRKA; 1.0E-06 M): 107 % of control; Residual activity (p38alpha; 1.0E-05 M): 73 % of control; Residual activity (p38alpha; 1.0E-06 M): 78 % of control
O=C(Nc1ccc(F)c(Nc2ccc3c(c2)CCCCC3=O)c1)c1cccc(F)c1 [Compound 109],87 % of control,98 % of control,91 % of control,95 % of control,114 % of control,106 % of control,87 % of control,106 % of control,101 % of control,96 % of control,98 % of control,99 % of control,90 % of control,110 % of control,116 % of control,108 % of control,76 % of control,99 % of control,96 % of control,89 % of control,"Residual activity (MAPKAPK2; 1.0E-05 M): 78 % of control; Residual activity (MAPKAPK2; 1.0E-06 M): 101 % of control; Residual activity (PAK6; 1.0E-05 M): 90 % of control; Residual activity (PAK6; 1.0E-06 M): 99 % of control; Residual activity (PIM1; 1.0E-05 M): 70 % of control; Residual activity (PIM1; 1.0E-06 M): 96 % of control; Residual activity (PKCtheta; 1.0E-05 M): 84 % of control; Residual activity (PKCtheta; 1.0E-06 M): 106 % of control; Residual activity (RET; 1.0E-05 M): 89 % of control; Residual activity (RET; 1.0E-06 M): 95 % of control; Residual activity (SRC; 1.0E-05 M): 100 % of control; Residual activity (SRC; 1.0E-06 M): 107 % of control; Residual activity (TRKA; 1.0E-05 M): 97 % of control; Residual activity (TRKA; 1.0E-06 M): 101 % of control; inhibition at 1 µM (p38alpha; 1 µM, read-out: inhibition of p38α): ≥ 50%; inhibition at 10 µM (p38alpha; 10 µM, read-out: inhibition of p38α): ≥ 50%; Residual activity (p38alpha; 1.0E-05 M): 4 % of control; Residual activity (p38alpha; 1.0E-06 M): 17 % of control"
